Assay results: patent US7109193B2, “Tricyclic diazepines tocolytic oxytocin receptor antagonists” (Wyeth, priority 2001, dated 2006)

Biological target: T1, human vasopressin V1a receptor subtype (Homo sapiens, UniProt P37288)
T1 construct: host or cells: CHO cells (pZeoSV vector for the Thibonnier line)
Assay: Vasopressin binding in Chinese Hamster Ovary cell membranes expressing human vasopressin V1a subtype receptors
Conditions: CHO cell membranes, [3H]Manning ligand; for IC50: values in parentheses; for inhibition at 0.1 µM: 100 nM, values without parentheses
Procedure, shortened: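 Membranes from CHO cells expressing human V1a receptor were incubated with [3H]Manning ligand (added as 20 μL of 8 nM) in pH 7.4 Tris buffer with MgCl2, BSA and protease inhibitors, 60 min at room temperature. Bound radioactivity was counted after filtration; values are percent inhibition at a stated concentration or IC50.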

T1 sequence (P37288 whole entry): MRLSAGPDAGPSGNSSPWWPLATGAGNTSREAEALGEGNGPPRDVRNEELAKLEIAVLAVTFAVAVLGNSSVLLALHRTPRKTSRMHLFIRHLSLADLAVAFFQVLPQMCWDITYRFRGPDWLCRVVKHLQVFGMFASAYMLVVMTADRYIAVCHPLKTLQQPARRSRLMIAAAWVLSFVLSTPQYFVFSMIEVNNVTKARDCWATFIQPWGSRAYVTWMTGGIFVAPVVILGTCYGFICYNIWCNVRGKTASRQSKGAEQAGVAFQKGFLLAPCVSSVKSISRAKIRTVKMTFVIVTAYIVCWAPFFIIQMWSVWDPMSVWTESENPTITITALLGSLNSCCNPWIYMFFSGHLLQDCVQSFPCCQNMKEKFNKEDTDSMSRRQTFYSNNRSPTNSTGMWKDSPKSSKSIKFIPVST

Row | SMILES | IC50 | inhibition at 0.1 µM
1 | COc1cc(C(=O)N2Cc3ccc(C(=O)N(C)CCN(C)C)n3Cc3ccccc32)ccc1-c1cccc2ccccc12 [Example 93, N-[2-(Dimethylamino)ethyl]-10-[3-methoxy-4-(1-naphthyl)benzoyl]-N-methyl-10,11-dihydro-5H-pyrrolo[2,1-c][1,4]benzodiazepine-3-carboxamide] |  | 29%
2 | COc1cccc(-c2cc(OC)c(C(=O)N3Cc4ccc(C(=O)NCCCN(C)C)n4Cc4ccccc43)cc2Cl)c1 [Example 79, 10-[(6-Chloro-3,3′-dimethoxy[1,1′-biphenyl]-4-yl)carbonyl]-N-[3-(dimethylamino)propyl]-10,11-dihydro-5H-pyrrolo[2,1-c][1,4]benzodiazepine-3-carboxamide] |  | 0%
3 | COc1ccccc1-c1ccc(C(=O)N2Cc3ccc(C(=O)N(C)CCN(C)C)n3Cc3ccccc32)cc1OC [Example 94, 10-[(2,2′-Dimethoxy[1,1′-biphenyl]-4-yl)carbonyl]-N-[2-(dimethylamino)ethyl]-N-methyl-10,11-dihydro-5H-pyrrolo[2,1-c][1,4]benzodiazepine-3-carboxamide] |  | 28%
4 | COc1cc(C(=O)N2Cc3ccc(C(=O)N(C)CCN(C)C)n3Cc3ccccc32)ccc1-c1ccccc1C [Example 92, N-[2-(Dimethylamino)ethyl]-10-[(2-methoxy-2′-methyl[1,1′-biphenyl]-4-yl)carbonyl]-N-methyl-10,11-dihydro-5H-pyrrolo[2,1-c][1,4]benzodiazepine-3-carboxamide] |  | 78%
5 | Cc1cc(C(=O)N2Cc3ccc(C(=O)N(C)CCN(C)C)n3Cc3ccccc32)ccc1-c1ccccc1C(F)(F)F [Example 85, N-[2-(Dimethylamino)ethyl]-N-methyl-10-{[2-methyl-2′-(trifluoromethyl)[1,1′-biphenyl]-4-yl]carbonyl}-10,11-dihydro-5H-pyrrolo[2,1-c][1,4]benzodiazepine-3-carboxamide] | 788 nM | 
6 | COc1ccccc1-c1ccc(C(=O)N2Cc3ccc(C(=O)N(C)CCCN(C)C)n3Cc3ccccc32)cc1C [Example 100, N-[3-(Dimethylamino)propyl]-10-[(2′-methoxy-2-methyl[1,1′-biphenyl]-4-yl)carbonyl]-N-methyl-10,11-dihydro-5H-pyrrolo[2,1-c][1,4]benzodiazepine-3-carboxamide] |  | 27%

Now from value to compound:

Row | IC50 | inhibition at 0.1 µM | SMILES
7 | 459 nM |  | COc1ccccc1-c1ccc(C(=O)N2Cc3ccc(C(=O)N4CCC(N5CCCCC5)CC4)n3Cc3ccccc32)cc1 [Example 111, {10-[(2′-Methoxy[1,1′-biphenyl]-4-yl)carbonyl]-10,11-dihydro-5H-pyrrolo[2,1-c][1,4]benzodiazepin-3-yl}[4-(1-piperidinyl)-1-piperidinyl]methanone]
8 | 202 nM |  | COc1cccc(-c2ccc(C(=O)N3Cc4ccc(C(=O)N5CCC[C@H]5CN5CCCC5)n4Cc4ccccc43)cc2C)c1 [Example 263, {10-[(3′-Methoxy-2-methyl[1,1′-biphenyl]-4-yl)carbonyl]-10,11-dihydro-5H-pyrrolo[2,1-c][1,4]benzodiazepin-3-yl}[(2S)-2-(1-pyrrolidinylmethyl)pyrrolidinyl]methanone]
9 | 387 nM |  | C=CCN1CCN(C(=O)c2ccc3n2Cc2ccccc2N(C(=O)c2ccc(-c4ccccc4C)c(C)c2)C3)CC1 [Example 220, (4-Allyl-1-piperazinyl){10-[(2,2′-dimethyl[1,1′-biphenyl]-4-yl)carbonyl]-10,11-dihydro-5H -pyrrolo[2,1-c][1,4]benzodiazepin-3-yl}methanone]
10 | 983 nM |  | Cc1cc(C(=O)N2Cc3ccc(C(=O)N4CC[C@@H](N(C)C)C4)n3Cc3ccccc32)ccc1-c1ccccc1C(F)(F)F [Example 271, [(3R)-3-(Dimethylamino)pyrrolidinyl](10-{[2-methyl-2′-(trifluoromethyl)[1,1′-biphenyl]-4-yl]carbonyl}-10,11-dihydro-5H-pyrrolo[2,1-c][1,4]benzodiazepin-3-yl)methanone]
